This note sets out measurements from patent publication US11731944B2, “SARS-CoV-2 inhibitors for treating coronavirus infections” (priority 2021, dated 2023).

The target of one assay is SARS-CoV-2 MPRO (Severe acute respiratory syndrome coronavirus 2 (2019-nCoV) (SARS-CoV-2), UniProt P0DTD1). Put plainly: SARS-CoV-2 Mpro enzymatic assay (FRET substrate cleavage). The class given is biochemical. The conditions noted are these: C-His6-tagged SARS-CoV-2 MPRO 25 nM, 30 min pre-incubation at RT, 60 min at 30° C., 10 doses from 25 μM; read-out: M pro IC50.
As to `C[C@](C(=O)NC1CCOC1)(c1cncnc1)N(C(=O)[C@H](F)Cl)c1ccc(OC(F)(F)F)cc1` (single isomer, unassigned) [Example 6a], the IC50 (in general, the concentration that gives 50% inhibition) is under 100 nM.

As to `C[C@](C(=O)NC1CCOC1)(c1cncnc1)N(C(=O)[C@H](F)Cl)c1ccc(OC(F)(F)F)cc1` (single isomer, unassigned) [Example 6b], the IC50 is under 100 nM.

Consider `C[C@@](C(=O)NC1CCOC1)(c1cncnc1)N(C(=O)[C@H](F)Cl)c1ccc(OC(F)(F)F)cc1` (single isomer, unassigned) [Example 6c], for which the 50% inhibitory concentration (IC50) fell in the range of 1000 to 10000 nM.

Turning to `C[C@@](C(=O)NC1CCOC1)(c1cncnc1)N(C(=O)[C@H](F)Cl)c1ccc(OC(F)(F)F)cc1` (single isomer, unassigned) [Example 6d], the IC50 is over 10000 nM.

`CC1(C)C[C@H](NC(=O)[C@@](C)(c2cncnc2)N(C(=O)[C@H](F)Cl)c2ccc(OC(F)(F)F)cc2)CCO1` (single isomer, unassigned) [Example 77a]: the IC50 was under 100 nM.

For `C[C@@](C(=O)NC1CCC(F)(F)CC1)(c1cncnc1)N(C(=O)[C@H](F)Cl)c1ccc(-c2cncs2)cc1` [Example 1b], the 50% inhibitory concentration (IC50) was 1000 to 10000 nM.

Regarding `C[C@](C(=O)NC1CCC(F)(F)CC1)(c1cncnc1)N(C(=O)[C@H](F)Cl)c1ccc(-c2ccno2)cc1` [Example 2a], the IC50 was under 100 nM.

`C[C@@](C(=O)NC1CCC(F)(F)CC1)(c1cncnc1)N(C(=O)[C@H](F)Cl)c1ccc(-c2ccno2)cc1` [Example 2b]: the IC50 was in the range of 1000 to 10000 nM.

In the case of `[2H][C@](C(=O)NC1CCC(F)(F)CC1)(c1cncnc1)N(C(=O)[C@H](F)Cl)c1ccc(OC(F)(F)F)cc1` [Example 3a], the IC50 is under 100 nM.

In the case of `[2H][C@@](C(=O)NC1CCC(F)(F)CC1)(c1cncnc1)N(C(=O)[C@H](F)Cl)c1ccc(OC(F)(F)F)cc1` [Example 3b], the IC50 is over 10000 nM.

As to `C[C@](C(=O)NC1CCC(F)(F)CC1)(c1cncnc1)N(C(=O)[C@H](F)Cl)c1ccc(OC(F)(F)F)cc1` [Example 4a], the IC50 was under 100 nM.

With `C[C@@](C(=O)NC1CCC(F)(F)CC1)(c1cncnc1)N(C(=O)[C@H](F)Cl)c1ccc(OC(F)(F)F)cc1` [Example 4b], the half-inhibitory concentration (IC50) fell in the range of 1000 to 10000 nM.

Consider `C[C@](C(=O)NC1CCOCC1)(c1cncnc1)N(C(=O)[C@H](F)Cl)c1ccc(OC(F)(F)F)cc1` [Example 5a], for which the half-inhibitory concentration (IC50) was under 100 nM.

For the molecule `C[C@@](C(=O)NC1CCOCC1)(c1cncnc1)N(C(=O)[C@H](F)Cl)c1ccc(OC(F)(F)F)cc1` [Example 5b], the IC50 was in the range of 1000 to 10000 nM.

Regarding `Cn1ccc([C@](C)(C(=O)NC2CCC(F)(F)CC2)N(C(=O)[C@H](F)Cl)c2ccc(OC(F)(F)F)cc2)cc1=O` [Example 13a], the IC50 is over 10000 nM.

In the case of `C[C@](C(=O)NC1CCOCC1)(c1cncc(F)c1)N(C(=O)[C@H](F)Cl)c1ccc(OC(F)(F)F)cc1` [Example 14a], the IC50 is under 100 nM.

Regarding `C[C@@](C(=O)NC1CCOCC1)(c1cncc(F)c1)N(C(=O)[C@H](F)Cl)c1ccc(OC(F)(F)F)cc1` [Example 14b], the concentration for half-maximal inhibition (IC50) was over 10000 nM.

Take `C[C@](C(=O)NC1CC(F)(F)C1)(c1cncnc1)N(C(=O)[C@H](F)Cl)c1ccc(OC(F)(F)F)cc1` [Example 18a]: the IC50 was under 100 nM.

`C[C@@](C(=O)NC1CC(F)(F)C1)(c1cncnc1)N(C(=O)[C@H](F)Cl)c1ccc(OC(F)(F)F)cc1` [Example 18b]: the concentration for half-maximal inhibition (IC50) lay in the range of 1000 to 10000 nM.

In the case of `C[C@](C(=O)NC1CCC(F)(F)CC1)(c1cncnc1)N(C(=O)[C@H](F)Cl)c1ccc(S(F)(F)(F)(F)F)cc1` [Example 22a], the IC50 is under 100 nM.

Consider `C[C@@](C(=O)NC1CCC(F)(F)CC1)(c1cncnc1)N(C(=O)[C@H](F)Cl)c1ccc(S(F)(F)(F)(F)F)cc1` [Example 22b], for which the IC50 was 1000 to 10000 nM.

On to `C[C@](C(=O)NC1CCOCC1)(c1cncnc1)N(C(=O)[C@H](F)Cl)c1ccc(S(F)(F)(F)(F)F)cc1` [Example 23a], for which the concentration for half-maximal inhibition (IC50) lay within 1000 to 10000 nM.

For `C[C@@](C(=O)NC1CCOCC1)(c1cncnc1)N(C(=O)[C@H](F)Cl)c1ccc(S(F)(F)(F)(F)F)cc1` [Example 23b], the IC50 is under 100 nM.

With `C[C@](C(=O)NC1CCC(F)(F)CC1)(c1cncnc1)N(C(=O)[C@H](F)Cl)c1ccc(C2(C(F)(F)F)CC2)cc1` [Example 28a], the IC50 is under 100 nM.

With `C[C@@](C(=O)NC1CCC(F)(F)CC1)(c1cncnc1)N(C(=O)[C@H](F)Cl)c1ccc(C2(C(F)(F)F)CC2)cc1` [Example 28b], the IC50 is over 10000 nM.

As to `C[C@](C(=O)NC1CCOCC1)(c1cncnc1)N(C(=O)[C@H](F)Cl)c1ccc(C2(C(F)(F)F)CC2)cc1` [Example 29a], the IC50 lay in the range of 100 to 1000 nM.

As to `C[C@@](C(=O)NC1CCOCC1)(c1cncnc1)N(C(=O)[C@H](F)Cl)c1ccc(C2(C(F)(F)F)CC2)cc1` [Example 29b], the IC50 was over 10000 nM.

Still in this assay, the particulars now being: M pro IC50, C-His6-tagged SARS-CoV-2 MPRO 25 nM, 30 min pre-incubation at RT, 60 min at 30° C., 10 doses from 25 μM.
`Cn1ccc([C@@](C)(C(=O)NC2CCC(F)(F)CC2)N(C(=O)[C@H](F)Cl)c2ccc(OC(F)(F)F)cc2)cc1=O` (single isomer, unassigned) [Example 13b] displayed an IC50 of over 10000 nM.

Regarding `C[C@](C(=O)NC1CCC(F)(F)CC1)(c1cncnc1)N(C(=O)[C@H](F)Cl)c1ccc(SC(F)(F)F)cc1` (single isomer, unassigned) [Example 33a], the half-maximal inhibitory concentration (IC50) is under 100 nM.

Molecule `CC1(C)COCC[C@H]1NC(=O)[C@](C)(c1cncnc1)N(C(=O)[C@H](F)Cl)c1ccc(OC(F)(F)F)cc1` (single isomer, unassigned) [Example 76c] had an IC50 of over 10000 nM.

Take `CC1(C)COCC[C@@H]1NC(=O)[C@](C)(c1cncnc1)N(C(=O)[C@H](F)Cl)c1ccc(OC(F)(F)F)cc1` (single isomer, unassigned) [Example 76d]: the IC50 was over 10000 nM.

In the case of `CC1(C)C[C@H](NC(=O)[C@](C)(c2cncnc2)N(C(=O)[C@H](F)Cl)c2ccc(OC(F)(F)F)cc2)CCO1` (single isomer, unassigned) [Example 77c], the IC50 fell in the range of 1000 to 10000 nM.

As for `CC1(C)C[C@@H](NC(=O)[C@](C)(c2cncnc2)N(C(=O)[C@H](F)Cl)c2ccc(OC(F)(F)F)cc2)CCO1` (single isomer, unassigned) [Example 77d], the IC50 is over 10000 nM.

`C[C@@](C(=O)NC1CCC2(CC1)COC2)(c1cncnc1)N(C(=O)[C@H](F)Cl)c1ccc(OC(F)(F)F)cc1` (single isomer, unassigned) [Example 107b] registered an IC50 of over 10000 nM.

Molecule `CC(C(=O)N[C@H]1CC[C@H](OC(F)(F)F)CC1)(c1cncnc1)N(C(=O)[C@H](F)Cl)c1ccc(OC(F)(F)F)cc1` (stereo in doubt) [Example 8] showed an IC50 of under 100 nM.

For `C[C@](C(=O)NC1CCC(F)(F)CC1)(c1cncc(F)c1)N(C(=O)[C@H](F)Cl)c1ccc(OC(F)(F)F)cc1` [Example 11a], the IC50 was under 100 nM.

In turn, `C[C@@](C(=O)NC1CCC(F)(F)CC1)(c1cncc(F)c1)N(C(=O)[C@H](F)Cl)c1ccc(OC(F)(F)F)cc1` [Example 11b] returned an IC50 of 1000 to 10000 nM.

As to `C[C@](C(=O)NC1CCC(F)(F)CC1)(c1cncnc1)N(C(=O)[C@H](F)Cl)c1ccc(OC(F)(F)F)cc1F` [Example 26a], the IC50 was 100 to 1000 nM.

With `C[C@@](C(=O)NC1CCC(F)(F)CC1)(c1cncnc1)N(C(=O)[C@H](F)Cl)c1ccc(OC(F)(F)F)cc1F` [Example 26b], the half-inhibitory concentration (IC50) was 1000 to 10000 nM.

Take `C[C@](C(=O)NC1CCOCC1)(c1cncnc1)N(C(=O)[C@H](F)Cl)c1ccc(OC(F)(F)F)cc1F` [Example 27a]: the 50% inhibitory concentration (IC50) fell in the range of 100 to 1000 nM.
